Assay [1] concerns the target human recombinant estrogen receptor beta (Homo sapiens, UniProt Q92731). Kind of assay: Estrogen receptor beta binding assay ([3H] Estradiol displacement). As to conditions: displacement of 0.5 nM [3H] Estradiol, 7.5 ng receptor protein, 2 hours at 25° C.; read-out: IC50 Value, Estrogen Receptor Subtype Beta.
For another assay, the system named is MCF-7 cells. Description: MCF-7 cell proliferation assay (estradiol stimulated versus unstimulated, MTT). In kind it is cell-based, human. The following applies: estradiol stimulated versus unstimulated MCF-7 cells, FIG. 1. As to the method:
Those skilled in the art will appreciate that several acceptable estrogen receptor-binding assays are known and available for initial screening of the compounds of the present invention. The initial screen chosen for detecting anti-estrogenic/estrogenic activity was a human cell line assay, namely the MCF-7 cell proliferation assay. MCF-7 cells are estrogen-receptor positive (ER+) cancer cells that respond to estradiol stimulation. Anti-estrogenic activity is measured in terms of a test article's ability to inhibit estradiol stimulated proliferation, implying an antagonistic action on the estrogen receptor and estrogenic activity can be inferred from increased proliferation. The following testing procedure was used.
MCF-7 cells were maintained in a RPMI medium, free of phenol red, and supplemented with 5% charcoal-stripped foetal calf serum, hydrocortisone, bovine insulin, penicillin and streptomycin until they reached 70% confluence. […] Cell survival was evaluated after 3-6 days, by replacing the culture media with 150 μl of fresh medium containing 10 mM 4-(2-hydroxyethyl)-1-piperazineethamsulfonic acid buffer (pH 7.4) followed by the addition of 50 μl of 2.5 mg/ml of 3-(4,5-dimethylthiazo-2-yl)-2,5-diphenyltetrazolium bromide (MTT). […] Plates were shaken for 15 minutes and the absorbance was determined at 570 nm with a microplate reader (BIORAD, model 450). […]

For assay [2], the target named is T1, human recombinant estrogen receptor alpha (Homo sapiens, UniProt P03372).
T1 sequence (P03372 1-595): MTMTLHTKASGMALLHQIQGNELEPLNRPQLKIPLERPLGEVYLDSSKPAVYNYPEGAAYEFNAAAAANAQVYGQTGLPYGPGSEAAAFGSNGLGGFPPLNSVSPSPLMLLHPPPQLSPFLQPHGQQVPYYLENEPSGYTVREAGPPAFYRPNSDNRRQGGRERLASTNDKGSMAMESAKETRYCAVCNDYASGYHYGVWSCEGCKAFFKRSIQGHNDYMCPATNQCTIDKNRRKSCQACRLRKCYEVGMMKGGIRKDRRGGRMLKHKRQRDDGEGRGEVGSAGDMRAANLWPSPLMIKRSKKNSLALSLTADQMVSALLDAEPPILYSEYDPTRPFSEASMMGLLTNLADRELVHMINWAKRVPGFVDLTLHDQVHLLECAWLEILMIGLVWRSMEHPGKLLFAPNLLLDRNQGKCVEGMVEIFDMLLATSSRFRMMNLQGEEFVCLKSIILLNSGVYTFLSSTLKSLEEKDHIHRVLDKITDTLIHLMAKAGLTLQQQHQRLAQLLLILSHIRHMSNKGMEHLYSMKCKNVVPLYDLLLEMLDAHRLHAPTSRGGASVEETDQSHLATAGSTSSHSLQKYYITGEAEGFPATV
Kind of assay: Estrogen receptor alpha binding assay ([3H] Estradiol displacement). As to conditions: IC50 Value, Estrogen Receptor Subtype Alpha, displacement of 0.5 nM [3H] Estradiol, 4.5 ng receptor protein, 2 hours at 25° C.
Experimental: The stable expression of these individual receptor subtypes in cells provides a rapid and accurate means of quantifying the direct interaction of a test article with the estrogen binding sites. Briefly, this assay is conducted in 96 well plates where a series of concentrations of the test article are used to displace tritiated estradiol from either estrogen receptor alpha or estrogen receptor beta bearing cell membranes, under equilibrium conditions. […] This measurement is the primary test for mediation of the estrogen receptor and can also be used to measure the relative selectivity of the test article for either the alpha or beta subtype.
The alpha subtype assay measures the binding of [^3H] Estradiol to the human recombinant estrogen receptor. […] Membranes are filtered and washed 3 times, and the filters are counted to determine [^3H] Estradiol specifically bound. […] The measurement of the displaced tritiated estradiol allows the determination of an IC50 value, a direct measure of the test articles' interaction with the estrogen receptor alpha.

Structures are written as SMILES.

The values below come from patent US20020147187A1, “1,2-diphenyl-1-naphthyl ethene derivatives, analogs and use thereof” (priority 2001, published 2002).

A word on the IC50: it is the concentration needed to halve the response being measured.

Sequence of human recombinant estrogen receptor beta (Q92731 whole entry): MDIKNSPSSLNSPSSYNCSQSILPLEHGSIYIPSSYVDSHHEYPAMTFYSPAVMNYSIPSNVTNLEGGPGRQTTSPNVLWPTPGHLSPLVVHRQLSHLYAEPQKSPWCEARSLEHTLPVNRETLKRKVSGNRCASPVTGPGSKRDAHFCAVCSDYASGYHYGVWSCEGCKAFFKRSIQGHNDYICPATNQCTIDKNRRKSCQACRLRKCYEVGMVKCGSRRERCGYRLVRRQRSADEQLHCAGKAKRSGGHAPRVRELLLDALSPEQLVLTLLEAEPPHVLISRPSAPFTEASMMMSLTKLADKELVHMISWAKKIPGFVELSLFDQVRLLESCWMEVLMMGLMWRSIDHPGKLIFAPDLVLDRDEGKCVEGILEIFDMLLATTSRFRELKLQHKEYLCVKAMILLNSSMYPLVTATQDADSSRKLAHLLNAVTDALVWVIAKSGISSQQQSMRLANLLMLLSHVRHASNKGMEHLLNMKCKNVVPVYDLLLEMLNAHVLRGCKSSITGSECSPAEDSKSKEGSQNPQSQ

Take `C/C(=C(/c1ccc(O)cc1)c1cccc2cc(O)ccc12)c1ccc(OCCN2CCCC2)cc1` [Formula II, (E)-5-[1-(4-hydroxyphenyl)-2-[4-(2-pyrrolidin-1-yl-ethoxy)-phenyl]-propenyl]-naphthalen-2-ol]: the IC50 came out at 75 nM in assay [1] and 5.54 nM in assay [2]. Further, in the assay on MCF-7 cells, the “effect on estradiol stimulated proliferation of MCF-7 cells (shift in dose-response curve)” value is reported as “antagonizing the effect of estradiol”.
